The numbers were not newly measured in patent US20050107420A1 (Boehringe Ingelheim Pharma GmbH & Co. KG, priority 2002, published 2005), which cites them from elsewhere.

The subject of data set [1] is catalytic site (Sc) of PDE4.
The conditions of data set [2]: rat.
For data set [3] the following is noted: in vivo.
The subject of data set [4] is cAMP.
The test system of data set [5] is PDE4 derived from tumor cells. The settings on record: read-out: IC50 against a PDE4 derived from tumor cells.
The subject of data set [6] is tumor cells. Conditions: micromolar concentrations.
For data set [7], the target named is PDE4D isoform (Homo sapiens, UniProt Q08499).
For data set [8] the following is noted: antigen-challenged pig.
Data set [9] has as its system TNF release and lymphocyte proliferation. The settings on record: oral dose of 300 mg.
For data set [10], the system named is PDE4B mutant enzyme. Conditions: alanine for aspartate substitution.
For data set [11] the following is noted: guinea-pig.
The conditions of data set [12]: in vivo. The source holds these as a separate data set.
For data set [13] the following is noted: oral administration, clinical conditions.
Experiment in data set [14]: not given
The source holds these as a separate data set.

Data set [15] concerns gastric parietal cells.
The conditions of data set [16]: human, in vivo.

PDE4D isoform, sequence (Q08499 whole entry, canonical isoform): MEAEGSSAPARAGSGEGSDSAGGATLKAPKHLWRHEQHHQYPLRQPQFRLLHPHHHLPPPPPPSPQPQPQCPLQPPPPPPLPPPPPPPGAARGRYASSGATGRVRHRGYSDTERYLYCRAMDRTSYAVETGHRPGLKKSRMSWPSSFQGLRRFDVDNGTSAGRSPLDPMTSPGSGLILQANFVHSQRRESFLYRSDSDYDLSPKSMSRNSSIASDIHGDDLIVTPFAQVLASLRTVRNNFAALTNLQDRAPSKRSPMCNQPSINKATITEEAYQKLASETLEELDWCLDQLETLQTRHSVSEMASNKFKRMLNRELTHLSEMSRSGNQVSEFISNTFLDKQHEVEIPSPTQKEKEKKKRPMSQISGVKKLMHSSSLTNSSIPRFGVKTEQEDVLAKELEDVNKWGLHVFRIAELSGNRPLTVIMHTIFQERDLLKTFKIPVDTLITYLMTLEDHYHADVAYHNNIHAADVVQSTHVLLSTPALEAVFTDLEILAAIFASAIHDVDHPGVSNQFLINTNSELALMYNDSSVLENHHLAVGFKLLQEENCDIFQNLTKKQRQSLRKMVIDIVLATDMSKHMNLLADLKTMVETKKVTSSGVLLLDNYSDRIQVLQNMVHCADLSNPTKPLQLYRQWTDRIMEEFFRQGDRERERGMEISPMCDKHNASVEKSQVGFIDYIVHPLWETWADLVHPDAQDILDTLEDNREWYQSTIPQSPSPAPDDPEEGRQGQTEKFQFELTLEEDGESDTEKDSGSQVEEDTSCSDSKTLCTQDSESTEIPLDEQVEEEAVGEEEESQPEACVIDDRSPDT

As for `COc1ccc([C@H](Cc2ccncc2)c2ccccc2)cc1OC1CCCC1` [CDP840], the “potency at the Sc” value in [1] was “significantly higher potency at the Sc than does SB-207,499”. Further, the “late reactions to inhaled allergen” value (9.5 days oral administration, 15 and 30 mg, patients with bronchial asthma) was “suppression of late reactions to inhaled allergen”. Besides, the “late-phase response in the treatment of asthma” value (human, in vivo) is recorded as “significant inhibition”.
Regarding `COc1cc2c3c(c1)C(c1ccccc1)=N[C@@H](NC(=O)c1cc4ccccc4cn1)C(=O)N3CC2` [CI-1018], the “oral potency, ED50” value in data set [2] is recorded as 5 mg/kg.
Regarding `COc1ccc(C2CNC(=O)NC2)cc1OC1CC2CCC1C2` (centres unmarked) [CP-80,633], the “emesis, nausea and vomiting” value in [3] was “elicit emesis”.
Regarding `COc1ccc([C@@H](Cc2ccncc2)c2ccccc2)cc1OC1CCCC1` [CT-1731], in data set [4], the “elevation of cAMP, activity relative to enantiomer CDP840” value is “less active”.
In general, IC50 refers to the midpoint of a concentration-inhibition curve. As for `Clc1nc2c(N3CCCC3)nc(C3CCNCC3)nc2nc1NCc1ccccc1` [Formula (0.1.55)], in [5], the 50% inhibitory concentration (IC50) is 16 nM. Further, the “inhibition of the growth of tumor cells” value in data set [6] was “inhibit the growth of tumor cells at micromolar concentrations”.
As to `O=C(NCc1ccccc1Cl)c1cccnc1Oc1ccc(F)cc1` [Formula (0.1.58)], the “selectivity for inhibition of the PDE4D isoform” value in [7] is given as 100 fold.
Consider `N#Cc1cccc(-c2nc(-c3ccc(C(=O)O)cc3)cc3cccnc23)c1` [Formula (0.1.59)], for which the “potency or selectivity for PDE4D relative to other subtypes, in words” value in data set [7] is listed as “PDE4D selective inhibitor”.
Take `CCCn1c(=O)c2c(C)nc(CC)n2c2nc(OC)ccc21` [Formula D-22888]: in [8], the anti-allergic effect entry is listed as “strong anti-allergic affect” and the rhinorrhea entry is “inhibit rhinorrhea”.
Regarding `CCNc1ncn(Cc2ccc(OC)c(OC3CCCC3)c2)c2nc(C(C)C)nc1-2` [Formula V-11294A], the “TNF levels and lymphocyte proliferation ex vivo” value in [9] was “effective in reducing TNF levels and lymphocyte proliferation”.
With `COc1ccc(C(=O)Nc2c(Cl)cncc2Cl)cc1OC1CCCC1` [RP-73,401], in data set [10], the “potency on the mutant PDE4B enzyme” value is reported as “lose potency”. In data set [11], the “inhibition of antigen-induced airway eosinophilia and PAF- and ozone-induced airway hyper-responsiveness (AHR)” value is on record as “active”; the “inhibition of antigen-induced bronchoalveolar lavage (BAL) eosinophilia” value is “active”; the “inhibition of antigen-induced lung eosinophilia and eosinophil peroxidase (EPO)” value is recorded as “active”.
In the case of `O=c1c2cccnc2n(-c2cccc([N+](=O)[O-])c2)c(=O)n1Cc1ccncc1` [RS-25,344], the “potency or selectivity for PDE4D relative to other subtypes, in words” value in data set [7] was “more potent against PDE4D”.
Consider `COc1ccc(CC2CNC(=O)N2)cc1OC1CCCC1` (centres unmarked) [Ro-20-1724], for which the “potency on the mutant PDE4B enzyme” value in data set [10] is “lose potency”.
`COc1cc2c(cc1OC)[C@@H]1CN(C)CC[C@@H]1N=C2c1ccc(NC(C)=O)cc1` [benafentrine]: in data set [12], the bronchodilation result is “bronchodilation only when administered by inhalation”.
As for `CSc1ccc(C(=O)c2[nH]c(=O)[nH]c2C)cc1` [enoximone], in data set [13], the “mean pulmonary artery pressure” value is given as “decreases in mean pulmonary artery pressure”.
In the case of `CC[N+]1(C)[C@@H]2CC(OC(=O)[C@H](CO)c3ccccc3)C[C@H]1[C@@H]1O[C@@H]12` (some centres unmarked) [oxitropium], the “change in heart rate, blood pressure, bladder function, intraocular pressure, or pupillary diameter” value in [14] (inhaled at several times the recommended dose) is recorded as “little or no change”.
As for `COc1ccc(C2CNC(=O)C2)cc1OC1CCCC1` (centres unmarked) [rolipram], the “potency on the mutant PDE4B enzyme” value in data set [10] was “lose potency”. The “stimulation of acid secretion from gastric parietal cells” value in [15] is recorded as “very potent stimulator”.
As for `Cn1c(=O)c2[nH]cnc2n(C)c1=O` [theophylline], the “neutrophil counts in the sputum of COPD patients” value in data set [16] is listed as “reduces neutrophil counts”.
In the case of `CCOc1cc2cc(C(=O)O)sc2cc1OCC` [tibenelast], the bronchodilation result in data set [12] is recorded as “Unsatisfactory results”.
On to `C[N+]1(C)C2CC(OC(=O)C(O)(c3cccs3)c3cccs3)CC1C1OC12` (stereo not drawn) [tiotropium, (1α, 2β, 4β, 5α, 7β)-7-[(hydroxydi-2-thienylacetyl)oxy]-9,9-dimethyl-3-oxa-9-azoniatricyclo[3.3.1.0^2,4]nonane bromide], for which the duration of action entry in data set [14] (in vivo) is recorded as “prolonged duration of action”.
On to `CCCOc1ccccc1-c1nc2[nH]nnc2c(=O)[nH]1` [zaprinast], for which the bronchodilation result in [12] is reported as “Unsatisfactory results”.
As for `COc1cc(-c2ccc(=O)[nH]n2)ccc1OC(F)F` [zardaverine], in [12], the bronchodilation result was “only a modest and short-lived bronchodilation”.
